Experimental findings from patent publication US20260201008A1, “SECRETIN-DERIVED GLP1R SELECTIVE AGONISTS” (GUBRA A/S, priority 2023, published 2026) are described below.

Structures are written as SMILES. Numbered stars: 1 amine (or outer) side, 2 acyl side, 3 side chain; on linkers, the order of the positions; unused ones are H or OH. Square brackets hold non-standard residues; d marks the D form. Side chains are listed from the residue outwards. Peptide text beside a SMILES is read from it. * marks the point of attachment. C20 diacid = O=C(O)CCCCCCCCCCCCCCCCCCC(=O)*; γGlu = O=C(O)[C@H](CCC(=O)[*:2])N[*:1]; AEEA = NCCOCCOCC(=O)O; Aib = CC(C)(N)C(=O)O

One data set has as its target SCTR (Homo sapiens, UniProt P47872). In words: hSCTR potency, cAMP accumulation in CHO-K1 cells stably overexpressing hSCTR. The format is cell-based. The following applies: cAMP accumulation, CHO-K1 cells overexpressing hSCTR; read-out: hSCTR pEC50 (converted). More on the design: alternatively Euroscreen ES-712-AF; FAST-0161L; host or cells: CHO-K1. In outline:
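Division-arrested CHO-K1 cells stably expressing hSCTR were plated in DPBS with 0.05% casein and 0.5 mM IBMX, then stimulated with test peptide for 30 min at room temperature. cAMP was read by HTRF after one hour. EC50 came from variable-slope sigmoidal nonlinear regression.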

A short description of data set [1]: Fibril formation of crude library peptides (Thioflavin T). The format is physicochemical. Also on record: key: average ThT fluorescence emission at 480 nm (ex 450 nm), raw units. The following applies: Physical stability of peptides. In outline:
(§1)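 Values reflect mean ThT emission (ex 450, em 480 nm) over 72 h at 40° C, read every 10 min after 5 min shaking at 700 rpm, plus a single initial absorbance at 600 nm for turbidity. Peptides were at 267 μM, pH 4.0 acetate or pH 7.0 phosphate (50 mM), with 4 μM ThT.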

Data set [2] is described as follows: Turbidity of crude library peptides (absorbance at 600 nm). The class given is physicochemical. The following applies: Physical stability of peptides. A digest of the protocol:
as §1

Another data set addresses GLP1R (Homo sapiens, UniProt P43220). In words: hGLP1R potency, cAMP accumulation in CHO-K1 cells stably overexpressing hGLP1R. The format is cell-based. Also on record: host or cells: CHO-K1. The following applies: for EC50: cAMP accumulation, CHO-K1 cells overexpressing hGLP1R, read-out: hGLP1R pEC50 (converted); for SCTR EC50/GLP1R EC50 ratio: selectivity for hGLP1R over hSCTR, cAMP accumulation in CHO-K1 cells. A digest of the protocol:
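Cells were plated in DPBS with 0.05% casein and 0.5 mM IBMX, then stimulated for 30 min at room temperature with test compound. cAMP was read by TR-FRET after one hour. EC50 came from variable-slope sigmoid nonlinear regression; purified peptides ran as 11-point 3-fold series, n=2.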

SCTR, sequence (P47872 23-440): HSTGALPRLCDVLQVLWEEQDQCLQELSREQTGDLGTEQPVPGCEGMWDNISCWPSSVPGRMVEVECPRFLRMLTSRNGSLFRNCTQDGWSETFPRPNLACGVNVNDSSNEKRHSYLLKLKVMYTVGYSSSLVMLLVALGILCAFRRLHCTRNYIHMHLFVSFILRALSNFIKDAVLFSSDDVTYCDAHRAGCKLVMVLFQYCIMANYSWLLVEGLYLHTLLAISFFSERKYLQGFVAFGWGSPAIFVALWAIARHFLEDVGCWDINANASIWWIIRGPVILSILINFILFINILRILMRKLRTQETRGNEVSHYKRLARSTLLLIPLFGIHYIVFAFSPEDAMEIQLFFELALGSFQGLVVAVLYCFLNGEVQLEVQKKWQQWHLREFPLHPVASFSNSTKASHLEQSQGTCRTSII
GLP1R, sequence (P43220 24-463): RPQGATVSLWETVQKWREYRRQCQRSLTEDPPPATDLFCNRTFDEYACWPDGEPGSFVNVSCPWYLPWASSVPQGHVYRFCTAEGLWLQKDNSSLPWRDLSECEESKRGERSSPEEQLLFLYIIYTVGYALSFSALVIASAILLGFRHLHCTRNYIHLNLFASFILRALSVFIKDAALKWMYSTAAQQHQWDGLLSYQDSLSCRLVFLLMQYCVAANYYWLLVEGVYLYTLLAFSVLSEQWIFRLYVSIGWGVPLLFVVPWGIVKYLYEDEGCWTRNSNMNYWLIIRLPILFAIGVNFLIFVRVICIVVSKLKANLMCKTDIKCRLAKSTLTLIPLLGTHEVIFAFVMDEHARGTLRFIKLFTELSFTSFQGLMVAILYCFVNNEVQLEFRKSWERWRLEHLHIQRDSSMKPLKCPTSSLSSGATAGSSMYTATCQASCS

On to `CC[C@H](C)[C@H](NC(=O)[C@H](Cc1ccccc1)NC(=O)[C@H](CCCNC(=N)N)NC(=O)[C@H](CCC(N)=O)NC(=O)[C@H](CC(C)C)NC(=O)[C@H](C)NC(=O)[C@H](C)NC(=O)CNC(=O)[C@H](CCC(=O)O)NC(=O)[C@H](CC(C)C)NC(=O)[C@H](CC(C)C)NC(=O)C(C)(C)NC(=O)[C@H](CO)NC(=O)[C@@H](NC(=O)[C@H](CC(=O)O)NC(=O)[C@H](CO)NC(=O)[C@@H](NC(=O)[C@H](Cc1ccccc1)NC(=O)[C@@H](NC(=O)CNC(=O)[C@H](CCC(=O)O)NC(=O)C(C)(C)NC(=O)[C@@H](N)Cc1c[nH]cn1)[C@@H](C)O)[C@@H](C)O)[C@@H](C)CC)C(=O)N[C@@H](CCC(N)=O)C(=O)N[C@@H](Cc1c[nH]c2ccccc12)C(=O)N[C@@H](CC(C)C)C(=O)N[C@H](C(N)=O)C(C)C` [compound 113] (H-H[Aib]EGTFTSDIS[Aib]LLEGAALQRFIQWLV-NH2), for which the EC50 on SCTR was 79.4 nM; at GLP1R, 0.0501 nM. Moreover, in data set [1], the Fibril formation came to 11510. For the same molecule, in data set [2], the “Turbidity (pH 7)” value stood at 0.78. For the same molecule, the “SCTR EC50/GLP1R EC50 ratio” value on GLP1R turned out to be 1590.
Regarding `CC[C@H](C)[C@H](NC(=O)[C@H](CC(=O)O)NC(=O)[C@H](CO)NC(=O)[C@@H](NC(=O)[C@H](Cc1ccccc1)NC(=O)[C@@H](NC(=O)CNC(=O)[C@H](CCC(=O)O)NC(=O)C(C)(C)NC(=O)[C@@H](N)Cc1c[nH]cn1)[C@@H](C)O)[C@@H](C)O)C(=O)N[C@@H](CO)C(=O)N[C@@H](Cc1ccc(O)cc1)C(=O)N[C@@H](CC(C)C)C(=O)N[C@@H](CCCCNC(=O)COCCOCCNC(=O)COCCOCCNC(=O)CC[C@H](NC(=O)CCCCCCCCCCCCCCCCCCC(=O)O)C(=O)O)C(=O)N[C@@H](CCC(=O)O)C(=O)N[C@@H](CCC(=O)O)C(=O)N[C@@H](C)C(=O)NC(C)(C)C(=O)N[C@@H](CC(C)C)C(=O)N[C@@H](CCC(N)=O)C(=O)N[C@@H](CCCNC(=N)N)C(=O)N[C@@H](Cc1ccccc1)C(=O)N[C@@H](CC(C)C)C(=O)N[C@@H](CCC(=O)O)C(=O)N[C@@H](Cc1c[nH]cn1)C(=O)N[C@@H](CC(C)C)C(=O)N[C@H](C(N)=O)C(C)C` [compound 114] (H-H[Aib]EGTFTSDISYLK([AEEA-AEEA-γGlu-C20 diacid])EEA[Aib]LQRFLEHLV-NH2), the EC50 on SCTR was 39.8 nM. In addition, the Fibril formation in data set [1] was 4292. Moreover, the “Turbidity (pH 7)” value in data set [2] was 0.08. Also, on GLP1R, the EC50 was 0.01 nM and the “SCTR EC50/GLP1R EC50 ratio” value came to 3608.
Taken in the same sequence, the figures for `CC[C@H](C)[C@H](NC(=O)[C@H](Cc1ccccc1)NC(=O)[C@H](CCCNC(=N)N)NC(=O)[C@H](CCC(N)=O)NC(=O)[C@H](CC(C)C)NC(=O)[C@H](C)NC(=O)[C@H](C)NC(=O)CNC(=O)[C@H](CCC(=O)O)NC(=O)[C@H](CC(C)C)NC(=O)[C@H](CC(C)C)NC(=O)[C@H](CCCNC(=N)N)NC(=O)[C@H](CO)NC(=O)[C@@H](NC(=O)[C@H](CC(=O)O)NC(=O)[C@H](CO)NC(=O)[C@@H](NC(=O)[C@H](Cc1ccccc1)NC(=O)[C@@H](NC(=O)CNC(=O)[C@H](CCC(=O)O)NC(=O)C(C)(C)NC(=O)[C@@H](N)Cc1c[nH]cn1)[C@@H](C)O)[C@@H](C)O)[C@@H](C)CC)C(=O)N[C@@H](CCC(N)=O)C(=O)N[C@@H](Cc1c[nH]c2ccccc12)C(=O)N[C@@H](CC(C)C)C(=O)N[C@H](C(N)=O)C(C)C` [compound 115] (H-H[Aib]EGTFTSDISRLLEGAALQRFIQWLV-NH2) were 15.8 nM, 6433, 0.48, 0.0398 nM and 459.
On to `CC[C@H](C)[C@H](NC(=O)[C@H](Cc1ccccc1)NC(=O)[C@H](CCCNC(=N)N)NC(=O)[C@H](CCC(N)=O)NC(=O)[C@H](CC(C)C)NC(=O)[C@H](C)NC(=O)[C@H](C)NC(=O)CNC(=O)[C@H](CCC(=O)O)NC(=O)[C@H](CC(C)C)NC(=O)[C@H](CC(C)C)NC(=O)[C@@H](NC(=O)[C@H](CO)NC(=O)[C@@H](NC(=O)[C@H](CC(=O)O)NC(=O)[C@H](CO)NC(=O)[C@@H](NC(=O)[C@H](Cc1ccccc1)NC(=O)[C@@H](NC(=O)CNC(=O)[C@H](CCC(=O)O)NC(=O)C(C)(C)NC(=O)[C@@H](N)Cc1c[nH]cn1)[C@@H](C)O)[C@@H](C)O)[C@@H](C)CC)C(C)C)C(=O)N[C@@H](CCC(N)=O)C(=O)N[C@@H](Cc1c[nH]c2ccccc12)C(=O)N[C@@H](CC(C)C)C(=O)N[C@H](C(N)=O)C(C)C` [compound 116] (H-H[Aib]EGTFTSDISVLLEGAALQRFIQWLV-NH2), for which, at SCTR, the EC50 is 79.4 nM. In addition, the Fibril formation in data set [1] stood at 202498. For the same molecule, the “Turbidity (pH 7)” value in data set [2] worked out at 0.42. Moreover, at GLP1R, the EC50 is 0.0501 nM and the “SCTR EC50/GLP1R EC50 ratio” value is 1422.
`CC[C@H](C)[C@H](NC(=O)[C@H](Cc1ccccc1)NC(=O)[C@H](CCCNC(=N)N)NC(=O)[C@H](CCC(N)=O)NC(=O)[C@H](CC(C)C)NC(=O)[C@H](C)NC(=O)[C@H](C)NC(=O)CNC(=O)[C@H](CCC(=O)O)NC(=O)[C@H](CC(C)C)NC(=O)[C@H](CC(C)C)NC(=O)[C@H](Cc1ccccc1)NC(=O)[C@H](CO)NC(=O)[C@@H](NC(=O)[C@H](CC(=O)O)NC(=O)[C@H](CO)NC(=O)[C@@H](NC(=O)[C@H](Cc1ccccc1)NC(=O)[C@@H](NC(=O)CNC(=O)[C@H](CCC(=O)O)NC(=O)C(C)(C)NC(=O)[C@@H](N)Cc1c[nH]cn1)[C@@H](C)O)[C@@H](C)O)[C@@H](C)CC)C(=O)N[C@@H](CCC(N)=O)C(=O)N[C@@H](Cc1c[nH]c2ccccc12)C(=O)N[C@@H](CC(C)C)C(=O)N[C@H](C(N)=O)C(C)C` [compound 117] (H-H[Aib]EGTFTSDISFLLEGAALQRFIQWLV-NH2): the EC50 at SCTR was 200 nM. In addition, the Fibril formation in data set [1] was found to be 238242. Further, the “Turbidity (pH 7)” value in data set [2] stood at 0.50. On GLP1R, the EC50 is 0.01 nM and the “SCTR EC50/GLP1R EC50 ratio” value worked out at 19436.
In the case of `CC[C@H](C)[C@H](NC(=O)[C@H](Cc1ccccc1)NC(=O)[C@H](CCCNC(=N)N)NC(=O)[C@H](CCC(N)=O)NC(=O)[C@H](CC(C)C)NC(=O)[C@H](C)NC(=O)[C@H](C)NC(=O)CNC(=O)[C@H](CCC(=O)O)NC(=O)[C@H](CC(C)C)NC(=O)[C@H](CC(C)C)NC(=O)[C@H](Cc1c[nH]c2ccccc12)NC(=O)[C@H](CO)NC(=O)[C@@H](NC(=O)[C@H](CC(=O)O)NC(=O)[C@H](CO)NC(=O)[C@@H](NC(=O)[C@H](Cc1ccccc1)NC(=O)[C@@H](NC(=O)CNC(=O)[C@H](CCC(=O)O)NC(=O)C(C)(C)NC(=O)[C@@H](N)Cc1c[nH]cn1)[C@@H](C)O)[C@@H](C)O)[C@@H](C)CC)C(=O)N[C@@H](CCC(N)=O)C(=O)N[C@@H](Cc1c[nH]c2ccccc12)C(=O)N[C@@H](CC(C)C)C(=O)N[C@H](C(N)=O)C(C)C` [compound 118] (H-H[Aib]EGTFTSDISWLLEGAALQRFIQWLV-NH2), the EC50 on SCTR is 79.4 nM. Further, the Fibril formation in data set [1] was 143374. For the same molecule, in data set [2], the “Turbidity (pH 7)” value is reported as 0.63. Moreover, at GLP1R, the EC50 was 0.0631 nM and the “SCTR EC50/GLP1R EC50 ratio” value stood at 1256.
